{"source": "ChEMBL document CHEMBL5143594", "about": "(Bioorg Med Chem Lett, 2022)", "set-up_in_all_cases": "species or system Severe acute respiratory syndrome coronavirus 2", "key": {"[1]": {"assay": "Inhibition of SARS-CoV-2 main protease P132H mutant expressed in Escherichia coli BL21 (DE3) using DABCYL-KTSAVLQ1SGFRKM-E(EDANS)-NH2 as substrate preincubated for 10 mins followed by substrate addition and measured after 5 mins by FRET analysis"}, "[2]": {"assay": "Inhibition of SARS-CoV-2 main protease G15S mutant expressed in Escherichia coli BL21 (DE3) using DABCYL-KTSAVLQ1SGFRKM-E(EDANS)-NH2 as substrate preincubated for 10 mins followed by substrate addition and measured after 5 mins by FRET analysis"}, "[3]": {"assay": "Inhibition of SARS-CoV-2 main protease L89F mutant expressed in Escherichia coli BL21 (DE3) using DABCYL-KTSAVLQ1SGFRKM-E(EDANS)-NH2 as substrate preincubated for 10 mins followed by substrate addition and measured after 5 mins by FRET analysis"}, "[4]": {"assay": "Inhibition of SARS-CoV-2 main protease T21I mutant expressed in Escherichia coli BL21 (DE3) using DABCYL-KTSAVLQ1SGFRKM-E(EDANS)-NH2 as substrate preincubated for 10 mins followed by substrate addition and measured after 5 mins by FRET analysis"}, "[5]": {"assay": "Inhibition of SARS-CoV-2 main protease K90R mutant expressed in Escherichia coli BL21 (DE3) using DABCYL-KTSAVLQ1SGFRKM-E(EDANS)-NH2 as substrate preincubated for 10 mins followed by substrate addition and measured after 5 mins by FRET analysis"}, "[6]": {"assay": "Inhibition of SARS-CoV-2 main protease L205V mutant expressed in Escherichia coli BL21 (DE3) using DABCYL-KTSAVLQ1SGFRKM-E(EDANS)-NH2 as substrate preincubated for 10 mins followed by substrate addition and measured after 5 mins by FRET analysis"}}}
{"compound": "CC(C)(C)[C@H](NC(=O)C(F)(F)F)C(=O)N1C[C@H]2[C@@H]([C@H]1C(=O)N[C@H](C#N)C[C@@H]1CCNC1=O)C2(C)C", "values": [{"measurement": "IC50", "setting": "[1]", "value": 12.2, "unit": "nM"}, {"measurement": "IC50", "setting": "[2]", "value": 10.3, "unit": "nM"}, {"measurement": "IC50", "setting": "[3]", "value": 10.5, "unit": "nM"}, {"measurement": "IC50", "setting": "[4]", "value": 10.1, "unit": "nM"}, {"measurement": "IC50", "setting": "[5]", "value": 12.7, "unit": "nM"}, {"measurement": "IC50", "setting": "[6]", "value": 10.7, "unit": "nM"}]}
